Assay results: PubChem BioAssay (NCI)
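All cell lines were grown in 96-well plates and treated with compound for 48 hours. TGI marks complete inhibition of growth.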

Columns and labels:
Experiment in all cases: growth of human tumour cells (NCI), 48 h
[1] = system: TK-10 renal
[2] = system: UO-31 renal
[3] = system: MALME-3M melanoma
[4] = system: SNB-19 CNS
[5] = system: OVCAR-8 ovarian
[6] = system: HOP-62 NSCLC
[7] = system: M14 melanoma
[8] = system: CAKI-1 renal
[9] = system: SF-539 CNS
[10] = system: EKVX NSCLC
[11] = system: MDA-MB-231 breast
[12] = system: SW-620 colon
[13] = system: UACC-257 melanoma
[14] = system: ACHN renal
[15] = system: OVCAR-3 ovarian
[16] = system: HS 578T breast
[17] = system: SK-OV-3 ovarian

Structure (SMILES)	TGI [1]	TGI [2]	TGI [3]	TGI [4]	TGI [5]	TGI [6]	TGI [7]	TGI [8]	TGI [9]	TGI [10]	TGI [11]	TGI [12]	TGI [13]	TGI [14]	TGI [15]	TGI [16]	TGI [17]
N#Cc1c(N)nc(Sc2ccccc2N)c(C#N)c1-c1ccccc1	34.2 µM	34.3 µM	46.2 µM	> 100 µM	75 µM	> 100 µM	> 100 µM	> 100 µM	80.1 µM	> 100 µM	45.5 µM	> 100 µM	> 100 µM	69.2 µM	–	–	–
CC(=O)N[C@@H](Cc1ccc(O)cn1)C(=O)NC1CCCCC1	> 100 µM	> 100 µM	–	> 100 µM	> 100 µM	> 100 µM	> 100 µM	> 100 µM	> 100 µM	> 100 µM	> 100 µM	> 100 µM	> 100 µM	> 100 µM	> 100 µM	> 100 µM	> 100 µM
COc1ccc(/C=N/NC(=S)Nc2cc(C)ccc2OC)cc1	–	> 100 µM	65.2 µM	> 100 µM	> 100 µM	> 100 µM	65.6 µM	> 100 µM	49.3 µM	59.5 µM	–	> 100 µM	–	> 100 µM	> 100 µM	> 100 µM	> 100 µM
CC1=CCN(c2ccccn2)OC1c1ccccc1 (stereo unspecified)	–	> 100 µM	> 100 µM	> 100 µM	> 100 µM	> 100 µM	> 100 µM	> 100 µM	> 100 µM	> 100 µM	–	> 100 µM	> 100 µM	> 100 µM	> 100 µM	–	> 100 µM
C(=C\c1c2oc(-c3ccccc3)cc(-c3ccccc3)c-2c2ccccc12)/C=C1\c2ccccc2-c2c(-c3ccccc3)cc(-c3ccccc3)[o+]c21	> 100 µM	> 100 µM	> 100 µM	> 100 µM	> 100 µM	> 100 µM	> 100 µM	–	> 100 µM	> 100 µM	–	> 100 µM	> 100 µM	> 100 µM	> 100 µM	–	> 100 µM
c1ccc(Nc2nnc(CCCCCCCCc3nnc(Nc4ccccc4)o3)o2)cc1	> 100 µM	> 100 µM	> 100 µM	> 100 µM	> 100 µM	> 100 µM	> 100 µM	> 100 µM	> 100 µM	> 100 µM	> 100 µM	> 100 µM	> 100 µM	> 100 µM	> 100 µM	–	> 100 µM
CCOC(=O)C1CCC(=O)N1C(=O)c1ccc(Cl)cc1 (stereo unspecified)	–	> 100 µM	> 100 µM	> 100 µM	> 100 µM	> 100 µM	> 100 µM	> 100 µM	> 100 µM	> 100 µM	> 100 µM	> 100 µM	> 100 µM	> 100 µM	> 100 µM	> 100 µM	–
O=C(/C(=C/c1ccc(O)cc1)c1ccccc1)c1ccccc1	48.5 µM	29.4 µM	37.1 µM	–	60 µM	33.9 µM	30.9 µM	38.2 µM	30.3 µM	45.8 µM	–	32 µM	32.9 µM	29.6 µM	–	–	40.2 µM
